In ChEMBL document CHEMBL6127029, “Glutathione-dependent degradation of SMARCA2/4 for targeted lung cancer therapy with improved selectivity” (Eur J Med Chem, 2024):
The source made the active and inactive calls. The calls are words filed in the database; no cut-off is given here.

What was measured:
[1] = molecular target: T1, von Hippel-Lindau disease tumor suppressor/SWI/SNF-related matrix-associated actin-dependent regulator of chromatin subfamily A member 4 (Homo sapiens) (UniProt P51532+P40337); assay: PROTAC activity at VHL/SMARCA4 in human HEK-293T cells assessed as induction of SMARCA4 degradation at 1 uM incubated for 24 hrs by Western blotting analysis relative to control; format: cell-based
T1 sequence (P40337 whole entry, looked up): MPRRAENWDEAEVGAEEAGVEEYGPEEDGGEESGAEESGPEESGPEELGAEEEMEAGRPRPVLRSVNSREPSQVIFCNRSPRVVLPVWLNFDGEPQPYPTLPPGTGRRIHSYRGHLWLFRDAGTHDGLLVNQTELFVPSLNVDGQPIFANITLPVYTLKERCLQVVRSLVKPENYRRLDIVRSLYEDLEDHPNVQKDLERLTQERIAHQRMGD
T1 sequence (P51532 whole entry, looked up): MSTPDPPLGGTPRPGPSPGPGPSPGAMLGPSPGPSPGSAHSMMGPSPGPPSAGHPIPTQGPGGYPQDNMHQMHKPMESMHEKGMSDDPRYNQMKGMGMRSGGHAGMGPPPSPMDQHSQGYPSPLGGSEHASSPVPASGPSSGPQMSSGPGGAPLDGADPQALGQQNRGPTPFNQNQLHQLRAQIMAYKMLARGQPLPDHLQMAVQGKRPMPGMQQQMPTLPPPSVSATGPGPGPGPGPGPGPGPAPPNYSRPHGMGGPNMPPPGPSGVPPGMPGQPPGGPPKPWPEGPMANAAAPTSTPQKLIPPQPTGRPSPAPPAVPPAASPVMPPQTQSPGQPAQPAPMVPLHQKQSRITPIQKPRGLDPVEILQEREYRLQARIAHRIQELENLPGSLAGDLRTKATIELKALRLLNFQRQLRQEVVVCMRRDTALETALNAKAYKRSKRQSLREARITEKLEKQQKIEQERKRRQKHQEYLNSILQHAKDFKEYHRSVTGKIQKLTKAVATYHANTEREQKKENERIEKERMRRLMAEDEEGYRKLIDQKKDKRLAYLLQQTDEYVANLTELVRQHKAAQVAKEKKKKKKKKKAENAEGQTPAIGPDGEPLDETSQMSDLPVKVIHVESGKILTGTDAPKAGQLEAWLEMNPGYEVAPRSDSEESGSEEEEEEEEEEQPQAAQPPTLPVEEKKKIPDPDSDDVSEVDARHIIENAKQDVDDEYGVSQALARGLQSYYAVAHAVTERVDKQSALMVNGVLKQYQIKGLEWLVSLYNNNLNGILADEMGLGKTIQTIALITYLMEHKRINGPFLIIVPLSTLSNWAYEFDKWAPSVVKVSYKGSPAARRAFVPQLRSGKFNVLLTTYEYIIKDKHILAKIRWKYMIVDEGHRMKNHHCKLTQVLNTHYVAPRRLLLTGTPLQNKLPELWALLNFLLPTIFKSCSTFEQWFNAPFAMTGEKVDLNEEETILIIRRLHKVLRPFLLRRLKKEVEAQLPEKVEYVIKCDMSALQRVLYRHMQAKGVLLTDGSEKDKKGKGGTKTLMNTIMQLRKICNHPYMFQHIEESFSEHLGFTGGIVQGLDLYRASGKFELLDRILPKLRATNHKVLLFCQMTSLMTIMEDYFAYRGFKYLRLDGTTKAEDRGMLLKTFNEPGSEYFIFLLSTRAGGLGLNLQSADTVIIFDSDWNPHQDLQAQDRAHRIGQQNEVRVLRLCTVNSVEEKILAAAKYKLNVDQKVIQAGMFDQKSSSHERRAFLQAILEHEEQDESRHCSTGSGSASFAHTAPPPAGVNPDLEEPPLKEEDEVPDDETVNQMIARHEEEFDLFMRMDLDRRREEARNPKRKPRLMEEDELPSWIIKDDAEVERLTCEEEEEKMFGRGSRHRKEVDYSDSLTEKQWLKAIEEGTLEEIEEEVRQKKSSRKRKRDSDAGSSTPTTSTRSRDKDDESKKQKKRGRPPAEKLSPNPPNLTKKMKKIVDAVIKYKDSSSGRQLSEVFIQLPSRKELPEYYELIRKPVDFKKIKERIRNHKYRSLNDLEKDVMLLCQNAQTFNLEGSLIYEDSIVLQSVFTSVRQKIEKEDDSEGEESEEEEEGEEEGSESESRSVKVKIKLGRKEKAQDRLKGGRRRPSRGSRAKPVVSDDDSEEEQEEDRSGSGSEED

[2] = Toxicity in BALB/c mouse xenografted with human A549 cells assessed as morphological change in kidney at 80 mg/kg,IT(Intratumoral) administrated every four days for 16 days by hematoxylin and eosin staining based microscopic analysis; format: organism-based; conditions: in vivo, other, 384 h, time 16 day
[3] = molecular target: T2, von Hippel-Lindau disease tumor suppressor/SWI/SNF-related matrix-associated actin-dependent regulator of chromatin subfamily A member 2 (Homo sapiens) (UniProt P51531+P40337); assay: PROTAC activity at VHL/SMARCA2 in human A549 cells assessed as induction of SMARCA2 degradation at 1 uM pretreated with MG132 followed by compound addition and measured after 8 hrs by Western blotting analysis; format: cell-based
T2 sequence (P40337 whole entry, looked up): as the sequence (P40337 whole entry, looked up) above
T2 sequence (P51531 whole entry, looked up): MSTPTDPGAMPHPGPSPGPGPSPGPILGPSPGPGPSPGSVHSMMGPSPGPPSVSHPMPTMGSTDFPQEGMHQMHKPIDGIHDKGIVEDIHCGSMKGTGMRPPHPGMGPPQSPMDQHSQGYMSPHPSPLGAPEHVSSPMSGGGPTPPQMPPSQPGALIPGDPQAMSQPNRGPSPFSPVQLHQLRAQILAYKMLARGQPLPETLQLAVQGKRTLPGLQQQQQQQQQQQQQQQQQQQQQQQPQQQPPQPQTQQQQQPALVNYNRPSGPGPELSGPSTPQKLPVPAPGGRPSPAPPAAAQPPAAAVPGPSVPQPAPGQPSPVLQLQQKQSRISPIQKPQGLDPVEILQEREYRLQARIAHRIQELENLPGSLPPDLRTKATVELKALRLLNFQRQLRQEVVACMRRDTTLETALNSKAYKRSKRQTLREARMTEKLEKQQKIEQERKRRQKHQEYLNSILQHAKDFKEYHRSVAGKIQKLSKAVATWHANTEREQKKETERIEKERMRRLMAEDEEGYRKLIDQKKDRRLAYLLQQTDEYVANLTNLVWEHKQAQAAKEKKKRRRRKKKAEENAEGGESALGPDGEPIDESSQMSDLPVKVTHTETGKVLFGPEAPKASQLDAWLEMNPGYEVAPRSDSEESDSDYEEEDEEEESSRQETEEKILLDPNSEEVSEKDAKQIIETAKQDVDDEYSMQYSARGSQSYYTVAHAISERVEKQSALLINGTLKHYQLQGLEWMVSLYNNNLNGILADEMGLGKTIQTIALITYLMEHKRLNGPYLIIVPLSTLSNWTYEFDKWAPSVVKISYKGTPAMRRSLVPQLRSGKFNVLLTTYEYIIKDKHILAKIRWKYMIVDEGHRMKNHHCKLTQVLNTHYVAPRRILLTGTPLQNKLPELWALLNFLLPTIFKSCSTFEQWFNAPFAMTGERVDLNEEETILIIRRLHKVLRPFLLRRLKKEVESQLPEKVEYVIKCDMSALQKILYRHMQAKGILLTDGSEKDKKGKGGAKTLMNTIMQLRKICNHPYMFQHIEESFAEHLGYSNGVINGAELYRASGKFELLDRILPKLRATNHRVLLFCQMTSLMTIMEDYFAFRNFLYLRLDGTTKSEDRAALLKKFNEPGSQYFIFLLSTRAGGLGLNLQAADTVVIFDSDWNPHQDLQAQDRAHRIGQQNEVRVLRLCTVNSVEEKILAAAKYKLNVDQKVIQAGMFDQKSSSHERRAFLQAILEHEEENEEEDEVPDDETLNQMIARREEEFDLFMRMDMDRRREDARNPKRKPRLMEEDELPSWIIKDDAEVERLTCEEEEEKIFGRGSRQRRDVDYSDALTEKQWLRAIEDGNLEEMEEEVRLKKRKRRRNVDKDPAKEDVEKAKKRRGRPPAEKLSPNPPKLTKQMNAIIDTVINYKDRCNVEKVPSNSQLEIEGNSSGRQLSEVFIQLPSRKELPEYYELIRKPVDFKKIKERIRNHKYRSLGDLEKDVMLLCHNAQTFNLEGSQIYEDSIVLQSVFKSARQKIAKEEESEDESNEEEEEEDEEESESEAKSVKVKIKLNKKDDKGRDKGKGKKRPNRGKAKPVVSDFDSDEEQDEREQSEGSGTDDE

[4] = molecular target: T2, von Hippel-Lindau disease tumor suppressor/SWI/SNF-related matrix-associated actin-dependent regulator of chromatin subfamily A member 2 (Homo sapiens); assay: PROTAC activity at VHL/SMARCA2 in human A549 cells assessed as induction of SMARCA2 degradation at 1 uM by Western blotting analysis; format: cell-based; conditions: TDE = time-dependent effect
[5] = test system: A549; assay: Antitumor activity against human A549 cells xenografted in BALB/c mouse assessed as reduction in tumor size at 80 mg/kg,IT(Intratumoral) administrated every four days for 16 days; format: functional, organism-based; conditions: time 16.0 day
[6] = molecular target: T2, von Hippel-Lindau disease tumor suppressor/SWI/SNF-related matrix-associated actin-dependent regulator of chromatin subfamily A member 2 (Homo sapiens); assay: PROTAC activity at VHL/SMARCA2 in human A549 cells assessed as induction of SMARCA2 degradation at 1 uM incubated for 8 hrs in presence of GSH scavenger NEM by Western blotting analysis; format: cell-based
[7] = Toxicity in BALB/c mouse xenografted with human A549 cells assessed as morphological change in liver at 80 mg/kg,IT(Intratumoral) administrated every four days for 16 days by hematoxylin and eosin staining based microscopic analysis; format: organism-based; conditions: in vivo, other, 384 h, time 16 day
[8] = molecular target: T2, von Hippel-Lindau disease tumor suppressor/SWI/SNF-related matrix-associated actin-dependent regulator of chromatin subfamily A member 2 (Homo sapiens); assay: PROTAC activity at VHL/SMARCA2 in human HEK-293T cells assessed as induction of SMARCA2 degradation at 1 uM incubated for 24 hrs by Western blotting analysis relative to control; format: cell-based
[9] = test system: A549; assay: Inhibition of colony formation in human A549 cells assessed as reduction in colony number at 0.8 to 20 uM incubated for 13 days by crystal violet staining based analysis; format: functional, cell-based; conditions: dose 0.8-20 µM, time 13.0 day
[10] = Toxicity in BALB/c mouse xenografted with human A549 cells assessed as morphological change in spleen at 80 mg/kg,IT(Intratumoral) administrated every four days for 16 days by hematoxylin and eosin staining based microscopic analysis; format: organism-based; conditions: in vivo, other, 384 h, time 16 day
[11] = molecular target: T1, von Hippel-Lindau disease tumor suppressor/SWI/SNF-related matrix-associated actin-dependent regulator of chromatin subfamily A member 4 (Homo sapiens); assay: PROTAC activity at VHL/SMARCA4 in human 786-0 cells harboring mutated VHL assessed as induction of SMARCA4 degradation at 0.1 to 5 uM incubated for 8 hrs by Western blotting analysis; format: cell-based; conditions: dose 0.1-5 µM
[12] = molecular target: T2, von Hippel-Lindau disease tumor suppressor/SWI/SNF-related matrix-associated actin-dependent regulator of chromatin subfamily A member 2 (Homo sapiens); assay: PROTAC activity at VHL/SMARCA2 in human NCI-H1299 cells assessed as induction of SMARCA2 degradation at 1 uM by Western blotting analysis; format: cell-based; conditions: TDE = time-dependent effect
[13] = molecular target: T2, von Hippel-Lindau disease tumor suppressor/SWI/SNF-related matrix-associated actin-dependent regulator of chromatin subfamily A member 2 (Homo sapiens); assay: PROTAC activity at VHL/SMARCA2 in human A549 cells assessed as induction of SMARCA2 degradation at 1 uM pretreated with 2-(4-(3-Amino-6-(2-hydroxyphenyl)pyridazin-4-yl)piperazin-1-yl) acetic acid trifluoroacetate followed by compound addition and measured after 8 hrs by Western blotting analysis; format: cell-based
[14] = molecular target: T2, von Hippel-Lindau disease tumor suppressor/SWI/SNF-related matrix-associated actin-dependent regulator of chromatin subfamily A member 2 (Homo sapiens); assay: PROTAC activity at VHL/SMARCA2 in human A549 cells assessed as induction of SMARCA2 degradation at 1 uM pretreated with VHL-ligand followed by compound addition and measured after 8 hrs by Western blotting analysis; format: cell-based
[15] = test system: A549; assay: Antitumor activity against human A549 cells xenografted in BALB/c mouse assessed as reduction in tumor weight at 80 mg/kg,IT(Intratumoral) administrated every four days for 16 days; format: functional, organism-based; conditions: time 16.0 day
[16] = test system: A549; assay: Antitumor activity against human A549 cells xenografted in BALB/c mouse assessed as upregulation of cleaved caspase-3 expression at 80 mg/kg,IT(Intratumoral) administrated every four days for 16 days by Western blotting analysis; format: functional, organism-based; conditions: time 16.0 day
[17] = Toxicity in BALB/c mouse xenografted with human A549 cells assessed as change in body weight at 80 mg/kg,IT(Intratumoral) administrated every four days for 16 days; format: organism-based; conditions: in vivo, other, 384 h, time 16 day
[18] = test system: A549; assay: Antitumor activity against human A549 cells xenografted in BALB/c mouse assessed as upregulation of gamma-H2AX expression at 80 mg/kg,IT(Intratumoral) administrated every four days for 16 days by immunohistochemistry analysis; format: functional, organism-based; conditions: time 16.0 day
[19] = test system: NCI-H1299; assay: Cytotoxicity against human NCI-H1299 cells assessed as inhibition of cell growth incubated for 3 days by MTT assay; format: functional, cell-based; conditions: NCI-H1299, 72 h
[20] = Stability of the compound in cell culture medium containing 10% fetal bovine serum at 50 uM incubated for 72 hrs by HPLC analysis; format: physicochemical, cell-free; conditions: cattle
[21] = test system: A549; assay: Antitumor activity against human A549 cells xenografted in BALB/c mouse assessed as upregulation of cleaved caspase-3 expression at 80 mg/kg,IT(Intratumoral) administrated every four days for 16 days by immunohistochemistry analysis; format: functional, organism-based; conditions: time 16.0 day
[22] = molecular target: T2, von Hippel-Lindau disease tumor suppressor/SWI/SNF-related matrix-associated actin-dependent regulator of chromatin subfamily A member 2 (Homo sapiens); assay: PROTAC activity at VHL/SMARCA2 in human A549 cells assessed as induction of SMARCA2 degradation at 1 uM incubated for 24 hrs by Western blotting analysis; format: cell-based
[23] = molecular target: T2, von Hippel-Lindau disease tumor suppressor/SWI/SNF-related matrix-associated actin-dependent regulator of chromatin subfamily A member 2 (Homo sapiens); assay: PROTAC activity at VHL/SMARCA2 in human A549 cells assessed as induction of SMARCA2 degradation at 1 uM pretreated with MLN4924 followed by compound addition and measured after 8 hrs by Western blotting analysis; format: cell-based
[24] = molecular target: T2, von Hippel-Lindau disease tumor suppressor/SWI/SNF-related matrix-associated actin-dependent regulator of chromatin subfamily A member 2 (Homo sapiens); assay: PROTAC activity at VHL/SMARCA2 in human 786-0 cells harboring mutated VHL assessed as induction of SMARCA2 degradation at 0.1 to 5 uM incubated for 8 hrs by Western blotting analysis; format: cell-based; conditions: dose 0.1-5 µM
[25] = test system: A549; assay: Antitumor activity against human A549 cells xenografted in BALB/c mouse assessed as upregulation of Ki67 expression at 80 mg/kg,IT(Intratumoral) administrated every four days for 16 days by immunohistochemistry analysis; format: functional, organism-based; conditions: time 16.0 day
[26] = molecular target: T2, von Hippel-Lindau disease tumor suppressor/SWI/SNF-related matrix-associated actin-dependent regulator of chromatin subfamily A member 2 (Homo sapiens); assay: PROTAC activity at VHL/SMARCA2 in human NCI-H1299 cells harboring shRNA mediated VHL knockdown assessed as induction of SMARCA2 degradation at 0.1 to 2 uM incubated for 8 hrs by Western blotting analysis; format: cell-based; conditions: dose 0.1-2 µM
[27] = test system: HuLEC-5a; assay: Inhibition of colony formation in human HuLEC-5a cells assessed as reduction in colony size at 0.8 to 20 uM incubated for 13 days by crystal violet staining based analysis; format: functional, cell-based; conditions: dose 0.8-20 µM, time 13.0 day
[28] = test system: A549; assay: Inhibition of cell migration in human A549 cells at 10 uM incubated for 36 hrs by scratch wound healing based fluorescent microscopic analysis; format: functional
[29] = test system: A549; assay: Antitumor activity against human A549 cells xenografted in BALB/c mouse assessed as reduction in tumor volume at 80 mg/kg,IT(Intratumoral) administrated every four days for 16 days; format: functional, organism-based; conditions: time 16.0 day
[30] = Toxicity in BALB/c mouse xenografted with human A549 cells assessed as morphological change in lung at 80 mg/kg,IT(Intratumoral) administrated every four days for 16 days by hematoxylin and eosin staining based microscopic analysis; format: organism-based; conditions: in vivo, other, 384 h, time 16 day
[31] = Toxicity in BALB/c mouse xenografted with human A549 cells assessed as morphological change in heart at 80 mg/kg,IT(Intratumoral) administrated every four days for 16 days by hematoxylin and eosin staining based microscopic analysis; format: organism-based; conditions: in vivo, other, 384 h, time 16 day
[32] = test system: A549; assay: Antitumor activity against human A549 cells xenografted in BALB/c mouse assessed as downregulation of SMARCA2 expression at 80 mg/kg,IT(Intratumoral) administrated every four days for 16 days by immunohistochemistry analysis; format: functional, organism-based; conditions: time 16.0 day
[33] = molecular target: T2, von Hippel-Lindau disease tumor suppressor/SWI/SNF-related matrix-associated actin-dependent regulator of chromatin subfamily A member 2 (Homo sapiens); assay: PROTAC activity at VHL/SMARCA2 in human A549 cells harboring shRNA mediated VHL knockdown assessed as induction of SMARCA2 degradation at 0.1 to 2 uM incubated for 8 hrs by Western blotting analysis; format: cell-based; conditions: dose 0.1-2 µM
[34] = Stability in mouse plasma at 10 uM incubated for 24 hrs by HPLC analysis; format: ADME, cell-free
[35] = test system: A549; assay: Cytotoxicity against human A549 cells assessed as inhibition of cell growth incubated for 3 days by MTT assay; format: functional, cell-based; conditions: A549, 72 h
[36] = test system: HuLEC-5a; assay: Inhibition of colony formation in human HuLEC-5a cells assessed as reduction in colony number at 0.8 to 20 uM incubated for 13 days by crystal violet staining based analysis; format: functional, cell-based; conditions: dose 0.8-20 µM, time 13.0 day
[37] = test system: A549; assay: Inhibition of colony formation in human A549 cells assessed as reduction in colony size at 0.8 to 20 uM incubated for 13 days by crystal violet staining based analysis; format: functional, cell-based; conditions: dose 0.8-20 µM, time 13.0 day
[38] = test system: A549; assay: Antitumor activity against human A549 cells xenografted in BALB/c mouse assessed as downregulation of SMARCA2 expression at 80 mg/kg,IT(Intratumoral) administrated every four days for 16 days by Western blotting analysis; format: functional, organism-based; conditions: time 16.0 day
[39] = Stability of the compound in cell culture medium containing 10% fetal bovine serum assessed as drug degradation at 50 uM incubated for 12 hrs by HPLC analysis; format: physicochemical, cell-free; conditions: cattle, read-out: Drug degradation
[40] = Stability of the compound in cell culture medium containing 10% fetal bovine serum at 50 uM incubated for 12 hrs by HPLC analysis; format: physicochemical, cell-free; conditions: cattle

Cc1ncsc1-c1ccc(CNC(=O)[C@@H]2C[C@@H](O)CN2C(=O)[C@@H](NC(=O)CN2CCN(c3cc(-c4ccccc4OS(=O)(=O)c4ccc([N+](=O)[O-])cc4)nnc3N)CC2)C(C)(C)C)cc1
Activity [1]: inactive
Activity [2]: Non-Toxic
Activity [3]: inactive
Activity [4]: Tde
Activity [5]: Active
Activity [6]: inactive
Activity [7]: Non-Toxic
Activity [8]: inactive
inhibition [9]: Active
Activity [10]: Non-Toxic
Activity [11]: inactive
Activity [12]: Tde
Activity [13]: inactive
Activity [14]: inactive
Activity [15]: Active
Activity [16]: Active
Activity [17]: Non-Toxic
Activity [18]: Active
IC50 [19]: 21.8 µM
Stability [20]: Stable
Activity [21]: Active
Activity [22]: Active
Activity [23]: inactive
Activity [24]: inactive
Activity [25]: Active
Activity [26]: inactive
inhibition [27]: inactive
inhibition [28]: Active
Activity [29]: Active
Activity [30]: Non-Toxic
Activity [31]: Non-Toxic
Activity [32]: Active
Activity [33]: inactive
Stability [34]: Stable
IC50 [35]: 9.1 µM
inhibition [36]: inactive
inhibition [37]: Active
Activity [38]: Active

Cc1ncsc1-c1ccc(CNC(=O)[C@@H]2C[C@@H](O)CN2C(=O)[C@@H](NC(=O)CN2CCN(c3cc(-c4ccccc4OS(=O)(=O)c4ccc([N+](=O)[O-])c(F)c4)nnc3N)CC2)C(C)(C)C)cc1
degraded at 12 h, 50 µM [39]: > 60%
Stability [40]: Unstable
